The numbers were not newly measured in US10328040B2, “Therapeutic methods” (ARIZONA BOARD OF REGENTS ON BEHALF OF ARIZONA STATE …, priority 2014, dated 2019), which cites them from elsewhere.

In data set [1] the target is hRXRβ (Homo sapiens, UniProt P28702). The conditions noted are these: read-out: EC50 for the hRXRβ isoform.
Data set [2] deals with rat model of Parkinson's disease. The conditions noted are these: low dose.
Data set [3] deals with RXR β. The note with it: CV-1 cell line; read-out: EC50 for RXR β subtype.
The test system of data set [4] is RXR γ. The note with it: CV-1 cell line; read-out: EC50 for RXR γ subtype.
Data set [5] concerns hRXR. The conditions noted are these: Caco-2 cells.
Data set [6] addresses hRXR. The conditions noted are these: Caco-2 cells. This is another data set of the same source.

hRXRβ, sequence (P28702 whole entry, canonical isoform): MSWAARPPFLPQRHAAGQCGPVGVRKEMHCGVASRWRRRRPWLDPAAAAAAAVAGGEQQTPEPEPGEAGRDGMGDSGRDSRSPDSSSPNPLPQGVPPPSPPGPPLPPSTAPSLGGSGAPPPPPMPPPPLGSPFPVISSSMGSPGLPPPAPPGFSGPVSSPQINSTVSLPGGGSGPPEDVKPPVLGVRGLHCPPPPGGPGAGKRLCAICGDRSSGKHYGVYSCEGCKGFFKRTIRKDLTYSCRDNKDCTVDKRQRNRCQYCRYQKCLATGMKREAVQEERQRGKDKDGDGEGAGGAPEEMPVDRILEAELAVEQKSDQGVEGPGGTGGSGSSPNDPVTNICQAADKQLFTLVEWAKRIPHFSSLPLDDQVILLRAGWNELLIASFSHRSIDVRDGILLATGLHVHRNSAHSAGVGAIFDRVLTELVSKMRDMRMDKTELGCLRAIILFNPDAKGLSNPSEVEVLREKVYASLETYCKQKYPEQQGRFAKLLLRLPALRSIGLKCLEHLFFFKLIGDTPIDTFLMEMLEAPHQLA

What is called EC50 is the concentration needed to bring the measured effect to its halfway point. As for `Cc1cc2c(cc1-c1cc(/C=C/C(=O)O)ccc1O)C(C)(C)CCC2(C)C` [CD3254, (E)-3-(3-(1,2,3,4-tetrahydro-1,1,4,4,6-pentamethylnaphthylen-7-yl)-4-hydroxyphenyl)acrylic Acid], the EC50 in data set [1] was approximately 10 nM.
For `C=C(c1ccc(C(=O)O)cc1)c1cc2c(cc1C)C(C)(C)CCC2(C)C` [Bexarotene], the PD symptoms result in data set [2] is listed as “marked improvement in the PD symptoms”. In addition, in data set [2] (rat model of PD), the “dopamine cells and natural behavior” value was “restored dopamine cells and natural behavior”.
`Cc1cc2c(cc1C1(c3ccc(C(=O)O)cn3)CC1)C(C)(C)CCC2(C)C` [LGD100268]: the half-maximal effective concentration (EC50) in data set [3] is […]; in data set [4], […].
As for `C=C(c1ccc(C(=O)O)cn1)c1cc2c(cc1C)C(C)(C)CCC2(C)C` [Compound 1], the EC50 was […] in data set [3] and […] in data set [4].
The term Kd denotes the free concentration of one partner at which half of the binding sites on the other are occupied at equilibrium, for simple one-to-one binding. In the case of `C=C(c1ccc(C(=O)O)c(F)c1)c1cc2c(cc1C)C(C)(C)CCC2(C)C` [Compound 3], the EC50 in data set [5] is 43 nM. Moreover, in data set [6], the Kd is 12 nM.
